Test results as given in the CheMixHub ionic liquid set.
± gives the uncertainty stated by the source.

Assay: xn = mol fraction of the nth substance listed
Details: 101 kPa

CCCC[N+](CCCC)(CCCC)CCCC.N#C[S-] + CCCOCC(C)O
electrical conductivity [S/m]
Details	248.15 K	258.15 K	268.15 K	278.15 K	288.15 K	298.15 K	308.15 K	313.15 K
x1 = 0.01119	0.0011 ± 1e-05	0.00185 ± 1e-05	0.00285 ± 1e-05	0.00405 ± 1e-05	0.00541 ± 1e-05	–	0.00829 ± 1e-05	0.00901 ± 1e-05
x1 = 0.01571	0.00157 ± 1e-05	0.00271 ± 1e-05	0.00425 ± 1e-05	0.00618 ± 1e-05	0.00842 ± 1e-05	0.01082 ± 1e-05	0.01352 ± 1e-05	0.01485 ± 1e-05
x1 = 0.01893	0.0019 ± 1e-05	0.00331 ± 1e-05	0.00526 ± 1e-05	0.00773 ± 1e-05	0.01064 ± 1e-05	0.01386 ± 1e-05	0.01748 ± 1e-05	0.01934 ± 1e-05
x1 = 0.02277	0.00227 ± 1e-05	0.00401 ± 1e-05	0.00644 ± 1e-05	0.00956 ± 1e-05	0.01332 ± 1e-05	0.01758 ± 1e-05	0.02234 ± 1e-05	0.02493 ± 1e-05
x1 = 0.02903	0.00284 ± 1e-05	0.00511 ± 1e-05	0.00834 ± 1e-05	0.01257 ± 1e-05	0.01775 ± 1e-05	0.02385 ± 1e-05	0.03061 ± 1e-05	0.03428 ± 1e-05
x1 = 0.03808	0.00356 ± 1e-05	0.00652 ± 1e-05	0.01082 ± 1e-05	0.01658 ± 1e-05	0.02379 ± 1e-05	0.03253 ± 1e-05	0.04237 ± 1e-05	0.04779 ± 1e-05
x1 = 0.04326	0.0039 ± 1e-05	0.00723 ± 1e-05	0.01211 ± 1e-05	0.01864 ± 1e-05	0.02705 ± 1e-05	0.0372 ± 1e-05	0.04875 ± 1e-05	0.0548 ± 1e-05
x1 = 0.06196	0.00476 ± 1e-05	0.00908 ± 1e-05	0.01564 ± 1e-05	0.02482 ± 1e-05	0.03669 ± 1e-05	0.05153 ± 1e-05	0.06887 ± 1e-05	0.07879 ± 1e-05
x1 = 0.07662	0.00504 ± 1e-05	0.00979 ± 1e-05	0.01722 ± 1e-05	0.02776 ± 1e-05	0.04173 ± 1e-05	0.05942 ± 1e-05	0.0805 ± 1e-05	0.09266 ± 1e-05
x1 = 0.09291	0.005 ± 1e-05	0.00994 ± 1e-05	0.01782 ± 1e-05	0.02925 ± 1e-05	0.04479 ± 1e-05	0.06473 ± 1e-05	0.08902 ± 1e-05	0.1031 ± 1e-05
x1 = 0.1099	0.00469 ± 1e-05	0.00956 ± 1e-05	0.01751 ± 1e-05	0.02928 ± 1e-05	0.04564 ± 1e-05	0.06699 ± 1e-05	0.09343 ± 1e-05	0.109 ± 1e-05
x1 = 0.1312	0.00408 ± 1e-05	0.00857 ± 1e-05	0.01611 ± 1e-05	0.02768 ± 1e-05	0.04408 ± 1e-05	0.06606 ± 1e-05	0.09376 ± 1e-05	0.1103 ± 1e-05
x1 = 0.1458	0.0036 ± 1e-05	0.00773 ± 1e-05	0.01481 ± 1e-05	0.02593 ± 1e-05	0.0419 ± 0.0001	0.06371 ± 1e-05	0.09151 ± 1e-05	0.1083 ± 1e-05

CC[NH+](CC)CC.O=S(=O)([O-])O + O
298.15 K
Details	viscosity [mPa·s]
x2 = 0.3012	184 ± 19
x2 = 0.4244	169 ± 17
x2 = 0.6124	140 ± 13
x2 = 0.7344	110.8 ± 9.6
x2 = 0.9244	39.8 ± 2.8
